Columns and labels:
HeLa cells = experiment: Cell proliferation and cell death after 72 hr treatment, trypan blue exclusion; format: cell-based, human; conditions: CPE formulation, lots EM1001 and EM1002
Protocol: M4N in 10% (w/v) HP-β-CD and 25% (v/v) PEG 300 (hereafter, the “CPE formulation”), M4N in 30% (w/v) HP-β-CD and 25% (v/v) PEG 300 (hereafter, the “CPE 25/30 formulation”) and M4N in 27% (w/v) HP-β-CD and 33% (v/v) PEG 300 (hereafter, the “CPE 33/27 formulation”) was tested for their effects on cell death and proliferation on two different tumor cell lines: HeLa, an HPV-18 positive human cervical cancer cell line, and C-33A, an HPV-negative human cervical cancer cell line. M4N in DMSO was also tested in parallel. Both tumor cell lines were treated with increasing amounts of M4N: 0 μM, 20 μM, 40 μM, 60 μM and 80 μM, for 72 hr with the DMSO or the CPE formulation. […] After 72 hr of treatment or no treatment, the total number of cells and the number of live cells in each sample were counted, using the trypan blue exclusion method. The cell proliferation rate and the percentage of dead cells in each sample were analyzed. […]
Various lots of M4N were tested to show the effectiveness of the drug of different lots. […] After 72 hr of treatment or no treatment, the total number of cells and the number of live cells in each sample were counted, using the trypan blue exclusion method. The cell proliferation rate and the percentage of dead cells in each sample were analyzed.

[1] = M4N stability in HP-β-CD/PEG 300 buffer solutions at 60° C., RP-HPLC and pH; format: physicochemical; conditions: for M4N stability: M4N: 25% PEG300
Protocol: The stability of 10 mg/mL M4N (prepared in a ratio of 75:25 40% HP-β-CD: 40 mg/mL M4N PEG 300) in 15 mM buffer solutions was evaluated following incubation at 60° C.
2.0 g HP-β-CD was weighed into 5 mL volumetric flasks on an OHAUS Analytical Plus Balance. 1 mL of a 100 mM buffer solution was added to each flask. Each sample was q.s. to 5 mL with WFI.
750 μL 40% HP-β-CD buffered solution was placed in 1.5 mL polypropylene microtubes. […] After gentle inversion of the sample tubes, the pH of each solution was measured using a Orion, Model 420A pH meter. An initial aliquot was removed for RP-HPLC analysis. Test samples were then placed in a Precision 60° C. incubator. The M4N stability was evaluated by RP-HPLC. At each time point, the samples were centrifuged for 2 minutes at 13,000 rpm to pellet any solid M4N.

[2] = 40 mg/mL M4N/PEG 300 stability, visual appearance; format: physicochemical; conditions: for Visual Appearance: 40 mg/mL M4N/PEG 300
Protocol: The stability of 40 mg/mL M4N dissolved in 100% PEG 300 was evaluated up to 24 hours incubation at 30° C., 45° C. and 60° C. A stock 40 mg/mL M4N in PEG 300 was prepared at 60° C., following the procedure set forth in Example 18. Subsequently, aliquots were removed and incubated at the appropriate temperature. Samples were rotated at 450 rpm during the entire course of incubation. Visual observations and RP-HPLC data were collected throughout. […] The formation of crystals coincided with a loss of soluble M4N (Table 30). The 40 mg/mL M4N/PEG 300 samples incubated at 45° C. and 60° C. were stable after 24 hours incubation as assessed by visual observations and RP-HPLC analysis (Tables 29 and 30).

[3] = dog, in vivo, iv, 75 mg/kg

## COc1ccc(C[C@@H](C)[C@@H](C)Cc2ccc(OC)c(OC)c2)cc1OC [Formulation M4N, meso-1,4-bis(3,4-dimethoxyphenyl)-2,3-dimethylbutane]
HeLa cells
  effectiveness of different lots of M4N: remains the same
[1]; 10 mg/mL M4N in HP-β-CD/PEG 300 buffer solutions, 14 day incubation at 60° C.
  change in M4N concentration: slight decrease
[1]; 15 mM Acetate, pH 5 30% HP-β-CD, 60° C., 0 days
  M4N stability: M4N: 10.6 mg/mL
[1]; 15 mM Acetate, pH 5 30% HP-β-CD, 60° C., 2 days
  M4N stability: M4N: 10.2 mg/mL
[1]; 15 mM Acetate, pH 5 30% HP-β-CD, 60° C., 6 days
  M4N stability: M4N: 9.6 mg/mL
[1]; 15 mM Acetate, pH 5 30% HP-β-CD, 60° C., 10 days
  M4N stability: M4N: 9.7 mg/mL
[1]; 15 mM Acetate, pH 5 30% HP-β-CD, 60° C., 14 days
  M4N stability: M4N: 9.6 mg/mL
[1]; 15 mM Acetate, pH 6 30% HP-β-CD, 60° C., 0 days
  M4N stability: M4N: 10.5 mg/mL
[1]; 15 mM Acetate, pH 6 30% HP-β-CD, 60° C., 2 days
  M4N stability: M4N: 10.1 mg/mL
[1]; 15 mM Acetate, pH 6 30% HP-β-CD, 60° C., 6 days
  M4N stability: M4N: 9.7 mg/mL
[1]; 15 mM Acetate, pH 6 30% HP-β-CD, 60° C., 10 days
  M4N stability: M4N: 9.7 mg/mL
[1]; 15 mM Acetate, pH 6 30% HP-β-CD, 60° C., 14 days
  M4N stability: M4N: 9.6 mg/mL
[1]; 15 mM Borate, pH 10 30% HP-β-CD, 60° C., 0 days
  M4N stability: M4N: 10.5 mg/mL
[1]; 15 mM Borate, pH 10 30% HP-β-CD, 60° C., 2 days
  M4N stability: M4N: 10.1 mg/mL
[1]; 15 mM Borate, pH 10 30% HP-β-CD, 60° C., 6 days
  M4N stability: M4N: 9.7 mg/mL
[1]; 15 mM Borate, pH 10 30% HP-β-CD, 60° C., 10 days
  M4N stability: M4N: 9.6 mg/mL
[1]; 15 mM Borate, pH 10 30% HP-β-CD, 60° C., 14 days
  M4N stability: M4N: 9.6 mg/mL
[1]; 15 mM Borate, pH 11 30% HP-β-CD, 60° C., 0 days
  M4N stability: M4N: 10.5 mg/mL
[1]; 15 mM Borate, pH 11 30% HP-β-CD, 60° C., 2 days
  M4N stability: M4N: 10.3 mg/mL
[1]; 15 mM Borate, pH 11 30% HP-β-CD, 60° C., 6 days
  M4N stability: M4N: 9.8 mg/mL
[1]; 15 mM Borate, pH 11 30% HP-β-CD, 60° C., 10 days
  M4N stability: M4N: 9.5 mg/mL
[1]; 15 mM Borate, pH 11 30% HP-β-CD, 60° C., 14 days
  M4N stability: M4N: 9.4 mg/mL
[1]; 15 mM Phosphate, pH 3 30% HP-β-CD, 60° C., 0 days
  M4N stability: M4N: 10.3 mg/mL
[1]; 15 mM Phosphate, pH 3 30% HP-β-CD, 60° C., 2 days
  M4N stability: M4N: 10.1 mg/mL
[1]; 15 mM Phosphate, pH 3 30% HP-β-CD, 60° C., 6 days
  M4N stability: M4N: 9.6 mg/mL
[1]; 15 mM Phosphate, pH 3 30% HP-β-CD, 60° C., 10 days
  M4N stability: M4N: 9.7 mg/mL
[1]; 15 mM Phosphate, pH 3 30% HP-β-CD, 60° C., 14 days
  M4N stability: M4N: 9.6 mg/mL
[1]; 15 mM Phosphate, pH 4 30% HP-β-CD, 60° C., 0 days
  M4N stability: M4N: 10.5 mg/mL
[1]; 15 mM Phosphate, pH 4 30% HP-β-CD, 60° C., 2 days
  M4N stability: M4N: 10.1 mg/mL
[1]; 15 mM Phosphate, pH 4 30% HP-β-CD, 60° C., 6 days
  M4N stability: M4N: 9.6 mg/mL
[1]; 15 mM Phosphate, pH 4 30% HP-β-CD, 60° C., 10 days
  M4N stability: M4N: 9.7 mg/mL
[1]; 15 mM Phosphate, pH 4 30% HP-β-CD, 60° C., 14 days
  M4N stability: M4N: 9.6 mg/mL
[1]; 15 mM Phosphate, pH 7 30% HP-β-CD, 60° C., 0 days
  M4N stability: M4N: 10.5 mg/mL
[1]; 15 mM Phosphate, pH 7 30% HP-β-CD, 60° C., 2 days
  M4N stability: M4N: 10.3 mg/mL
[1]; 15 mM Phosphate, pH 7 30% HP-β-CD, 60° C., 6 days
  M4N stability: M4N: 9.7 mg/mL
[1]; 15 mM Phosphate, pH 7 30% HP-β-CD, 60° C., 10 days
  M4N stability: M4N: 9.7 mg/mL
[1]; 15 mM Phosphate, pH 7 30% HP-β-CD, 60° C., 14 days
  M4N stability: M4N: 9.7 mg/mL
[1]; 15 mM Phosphate, pH 8 30% HP-β-CD, 60° C., 0 days
  M4N stability: M4N: 10.6 mg/mL
[1]; 15 mM Phosphate, pH 8 30% HP-β-CD, 60° C., 2 days
  M4N stability: M4N: 10.4 mg/mL
[1]; 15 mM Phosphate, pH 8 30% HP-β-CD, 60° C., 6 days
  M4N stability: M4N: 9.7 mg/mL
[1]; 15 mM Phosphate, pH 8 30% HP-β-CD, 60° C., 10 days
  M4N stability: M4N: 9.8 mg/mL
[1]; 15 mM Phosphate, pH 8 30% HP-β-CD, 60° C., 14 days
  M4N stability: M4N: 9.6 mg/mL
[1]; 15 mM Phosphate, pH 9 30% HP-β-CD, 60° C., 0 days
  M4N stability: M4N: 10.4 mg/mL
[1]; 15 mM Phosphate, pH 9 30% HP-β-CD, 60° C., 2 days
  M4N stability: M4N: 10.2 mg/mL
[1]; 15 mM Phosphate, pH 9 30% HP-β-CD, 60° C., 6 days
  M4N stability: M4N: 9.7 mg/mL
[1]; 15 mM Phosphate, pH 9 30% HP-β-CD, 60° C., 10 days
  M4N stability: M4N: 9.8 mg/mL
[1]; 15 mM Phosphate, pH 9 30% HP-β-CD, 60° C., 14 days
  M4N stability: M4N: 9.7 mg/mL
[1]; HP-β-CD/PEG 300 buffer solutions, 60° C.
  M4N impurities, share of the total peak area: less than 0.1%
[1]; WFI, 30% HP-β-CD, 60° C., 0 days
  M4N stability: M4N: 10.4 mg/mL
[1]; WFI, 30% HP-β-CD, 60° C., 6 days
  M4N stability: M4N: 9.9 mg/mL
[1]; WFI, 30% HP-β-CD, 60° C., 10 days
  M4N stability: M4N: 9.7 mg/mL
[1]; WFI, 30% HP-β-CD, 60° C., 14 days
  M4N stability: M4N: 9.6 mg/mL
[1]; incubation at 60° C. up to 14 days
  change in apparent sample pH: Little if any changes
[2]; 40 mg/mL M4N/PEG 300, 6 hours at 30° C.
  visual observation: tiny crystals
[2]; 40 mg/mL M4N/PEG 300, 24 hours at 30° C.
  visual observation: even more crystals
[2]; 30° C., 2 hours
  Visual Appearance: Clear
[2]; 30° C., 4 hours
  Visual Appearance: Clear
[2]; 30° C., 6 hours
  Visual Appearance: Few tiny
[2]; 30° C., 24 hours
  Visual Appearance: Many tiny
[2]; 45° C., 2 hours
  Visual Appearance: Clear
[2]; 45° C., 4 hours
  Visual Appearance: Clear
[2]; 45° C., 6 hours
  Visual Appearance: Clear
[2]; 45° C., 24 hours
  Visual Appearance: Clear
[2]; 60° C., 2 hours
  Visual Appearance: Clear
[2]; 60° C., 4 hours
  Visual Appearance: Clear
[2]; 60° C., 6 hours
  Visual Appearance: Clear
[2]; 60° C., 24 hours
  Visual Appearance: Clear
[3]
  Clinical observations: diarrhea, emesis, and ataxia
